# Laboratory results reported in US9133204B2, “5-membered heterocyclic amides and related compounds” (H. Lundbeck A/S, priority 2007, dated 2015).
# Target: T1, P2X7 receptor (Homo sapiens, UniProt Q99572)
# T1 construct: host or cells: SH-SY5Y
# T1 sequence (Q99572 1-595): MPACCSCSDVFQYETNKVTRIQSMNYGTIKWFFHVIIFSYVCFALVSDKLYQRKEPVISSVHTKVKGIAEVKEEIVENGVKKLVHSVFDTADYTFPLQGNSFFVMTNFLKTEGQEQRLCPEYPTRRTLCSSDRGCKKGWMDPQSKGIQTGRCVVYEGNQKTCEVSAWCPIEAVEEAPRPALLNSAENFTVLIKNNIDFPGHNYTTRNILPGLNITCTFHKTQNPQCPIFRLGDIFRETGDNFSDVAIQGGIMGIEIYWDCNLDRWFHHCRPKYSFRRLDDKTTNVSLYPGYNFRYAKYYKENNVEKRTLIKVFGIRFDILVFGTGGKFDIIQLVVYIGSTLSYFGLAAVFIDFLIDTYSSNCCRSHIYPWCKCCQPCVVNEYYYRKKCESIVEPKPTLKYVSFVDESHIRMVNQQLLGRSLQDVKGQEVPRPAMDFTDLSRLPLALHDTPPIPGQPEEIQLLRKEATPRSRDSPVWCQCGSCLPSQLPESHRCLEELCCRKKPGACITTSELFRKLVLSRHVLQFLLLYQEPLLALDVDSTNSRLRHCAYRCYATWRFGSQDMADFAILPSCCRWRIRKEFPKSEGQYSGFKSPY
# Experiment: High throughput P2X7 calcium mobilization assay (Example 4A)
# Type: cell-based
# Conditions: SH-SY5Y cells; 50% decrease in fluorescence response of cells exposed to 80 μM BzATP; Table I
# Experimental: A. High Throughput Assay of P2X7 Receptors
# SH-SY5Y cells, ATCC Number CRL-2266, (American Type Culture Collection, Manassas, Va.) are cultured under DMEM/High medium supplemented with 10% FBS, and 10 mM HEPES (Invitrogen Corp., Carlsbad, Calif.) in 5% CO2 and at 37° C. One day prior to the experiment, cells are plated at a density of 100,000 cells/well in a 96 well black/clear TC plate (Corning® Costar®, Sigma-Aldrich Co., St. Louis, Mo.). At the beginning of the experiment, the culture medium is removed and cells are incubated with 50 μL of 2.3 μM Fluo-4 AM dye (Invitrogen Corp.) in the assay solution (5 mM KCl, 9.6 mM NaH2PO4.H2O, 25 mM HEPES, 280 mM sucrose, 5 mM glucose, and 0.5 mM CaCl2; pH is adjusted to 7.4 with NaOH) for an hour at 37° C. After one hour dye incubation, wells are rinsed once with 50 μL assay solution, and are then incubated for an hour at room temperature with 100 μL assay solution containing the test compound. The final concentration of test compound generally ranges from 1 to 2500 nM; for positive control cells, no test compound is added. After the one hour incubation, plates are transferred to a FLIPR^TETRA instrument (Molecular Devices, Sunnyvale, Calif.) for calcium mobilization analysis.
# For determination of antagonist activity, 50 μL, of P2X7 agonist (2′(3)-O-(4-benzoyl-benzoyl)adenosine 5′-triphosephate (BzATP; Sigma-Aldrich) in the assay solution is transferred using the FLIPR into the plate, such that the final agonist concentration is 80 μM (about EC50). In negative control cells, 50 μL of assay solution without agonist is added at this stage. The peak fluorescence signal over a 2 minute period is then measured.
# First, the average maximum relative fluorescent unit (RFU) response from the negative control wells (no agonist) is subtracted from the maximum response detected for each of the other experimental wells. Second, average maximum RFU response is calculated for the positive control wells (agonist wells).
row,IC50 [nM],Compound
1,≤ 2000,"Nc1cccnc1-n1cc(C(=O)NCC23CC4CC(CC(C4)C2)C3)c(C(F)(F)F)n1 [Compound 131, N-(adamantan-1-ylmethyl)-1-(3-aminopyridin-2-yl)-3-(trifluoromethyl)-1H-pyrazole-4-carboxamide]"
2,≤ 2000,"Cc1cnc(-n2cc(C(=O)NCC(CC(C)C)c3ccc(C(F)(F)F)cc3)c(C(C)(C)C)n2)nc1N (centres unmarked) [Compound 176, 1-(4-amino-5-methylpyrimidin-2-yl)-3-tert-butyl-N-{4-methyl-2-[4-(trifluoromethyl)phenyl]pentyl}-1H-pyrazole-4-carboxamide]"
3,≤ 2000,"O=C(NCC1(c2cccnc2)CCCCC1)c1sc(-n2cncn2)nc1C(F)(F)F [Compound 310, N-[(1-pyridin-3-ylcyclohexyl)methyl]-2-(1H-1,2,4-triazol-1-yl)-4-(trifluoromethyl)-1,3-thiazole-5-carboxamide]"
4,≤ 2000,"CCc1nc(-c2ncccn2)sc1C(=O)NCC1(c2cccnc2)CCCCC1 [Compound 219, 4-ethyl-N-[(1-pyridin-3-ylcyclohexyl)methyl]-2-pyrimidin-2-yl-1,3-thiazole-5-carboxamide]"
5,≤ 2000,"CCc1nc(-c2ncccn2)sc1C(=O)NCC1(c2ccc(Cl)nc2)CCCCC1 [Compound 298, N-{[1-(6-chloropyridin-3-yl)cyclohexyl]methyl}-4-ethyl-2-pyrimidin-2-yl-1,3-thiazole-5-carboxamide]"
6,≤ 2000,"Nc1cnc(-n2cc(C(=O)NCC34CC5CC(CC(C5)C3)C4)c(C(F)(F)F)n2)cn1 [Compound 148, N-(adamantan-1-ylmethyl)-1-(5-aminopyrazin-2-yl)-3-(trifluoromethyl)-1H-pyrazole-4-carboxamide]"
7,≤ 2000,"Cc1nn(-c2ccncc2)cc1C(=O)NCC12CC3CC(CC(C3)C1)C2 [Compound 101, N-(adamantan-1-ylmethyl)-3-methyl-1-pyridin-4-yl-1H-pyrazole-4-carboxamide]"
8,≤ 2000,"O=C(NCC(CC1CCCCC1)c1ccccc1)c1cn(-c2ncccn2)nc1C(F)(F)F (centres unmarked) [Compound 213, N-(3-cyclohexyl-2-phenypropyl)-1-pyrimidin-2-yl-3-(trifluoromethyl)-1H-pyrazole-4-carboxamide]"
9,≤ 2000,"Nc1nc(-n2cc(C(=O)NCC(O)C34CC5CC(CC(C5)C3)C4)c(C(F)(F)F)n2)ncc1F (centres unmarked) [Compound 169, N-(2-adamantan-1-yl-2-hydroxyethyl)-1-(4-amino-5-fluoropyrimidin-2-yl)-3-(trifluoromethyl)-1H-pyrazole-4-carboxamide]"
10,≤ 2000,"CC(C)CC(CNC(=O)c1sc(-c2ncccn2)nc1C(F)(F)F)c1ccc(Cl)nc1 (centres unmarked) [Compound 292, N-[2-(6-chloropyridin-3-yl)-4-methylpentyl]-2-pyrimidin-2-yl-4-(trifluoromethyl)-1,3-thiazole-5-carboxamide]"
11,≤ 2000,"Cc1cc(-n2cc(C(=O)NCC34CC5CC(CC(C5)C3)C4)c(C)n2)nc(N)n1 [Compound 64, N-(adamantan-1-ylmethyl)-1-(2-amino-6-methylpyrimidin-4-yl)-3-methyl-1H-pyrazole-4-carboxamide]"
12,≤ 2000,"CC(C)n1cc(C2(CNC(=O)c3sc(-c4ncccn4)nc3C(F)(F)F)CCCCC2)cn1 [Compound 297, N-{[1-(1-isopropyl-1H-pyrazol-4-yl)cyclohexyl]methyl}-2-pyrimidin-2-yl-4-(trifluoromethyl)-1,3-thiazole-5-carboxamide]"
13,≤ 2000,"Cc1cnc(-n2cc(C(=O)NCC34CC5CC(CC(C5)C3)C4)c(C)n2)nc1N [Compound 45, N-(adamantan-1-ylmethyl)-1-(4-amino-5-methylpyrimidin-2-yl)-3-methyl-1H-pyrazole-4-carboxamide]"
14,≤ 2000,"O=C(NCC1(c2ccc(Cl)cc2)CCC1)c1cn(-c2ncccn2)nc1C(F)(F)F [Compound 204, N-{[1-(4-chlorophenyl)cyclobutyl]methyl}-1-pyrimidin-2-yl-3-(trifluoromethyl)-1H-pyrazole-4-carboxamide]"
15,≤ 2000,"Cc1cnc(-n2cc(C(=O)NCC34CC5CC(CC(C5)C3)C4)c(C)n2)nc1-c1cccnc1 [Compound 95, N-(adamantan-1-ylmethyl)-3-methyl-1-(5-methyl-4-pyridin-3-ylpyrimidin-2-yl)-1H-pyrazole-4-carboxamide]"
16,≤ 2000,"CC(CCNC(=O)c1cn(-c2ncccn2)nc1C(F)(F)F)c1ccccc1 (centres unmarked) [Compound 215, N-(3-phenylbutyl)-1-pyrimidin-2-yl-3-(trifluoromethyl)-1H-pyrazole-4-carboxamide]"
17,≤ 2000,"CCc1cnc(-n2cc(C(=O)NCC34CC5CC(CC(C5)C3)C4)c(C)n2)nc1 [Compound 102, N-(adamantan-1-ylmethyl)-1-(5-ethylpyrimidin-2-yl)-3-methyl-1H-pyrazole-4-carboxamide]"
18,≤ 2000,"O=C(NCC12CC3CC(CC(C3)C1)C2)c1cn(-c2cc(=O)[nH]cn2)nc1C(F)(F)F [Compound 153, N-(adamantan-1-ylmethyl)-1-(6-oxo-1,6-dihydropyrimidin-4-yl)-3-(trifluoromethyl)-1H-pyrazole-4-carboxamide]"
19,≤ 2000,"CCc1nc(-c2ncccn2)sc1C(=O)NCC12CC3CC(CC(C3)C1)C2 [Compound 247, N-(adamantan-1-ylmethyl)-4-ethyl-2-pyrimidin-2-yl-1,3-thiazole-5-carboxamide]"
20,≤ 2000,"O=C(NCC(c1ccccc1)C1CCCCC1)c1cn(-c2ncccn2)nc1C(F)(F)F (centres unmarked) [Compound 211, N-(2-cyclohexyl-2-phenylethyl)-1-pyrimidin-2-yl-3-(trifluoromethyl)-1H-pyrazole-4-carboxamide]"
21,≤ 2000,"Cc1nn(-c2ncc(F)cn2)cc1C(=O)NCC(CC(C)C)c1ccc(C(F)(F)F)cc1 (centres unmarked) [Compound 117, 1-(5-fluoropyrimidin-2-yl)-3-methyl-N-{4-methyl-2-[4-(trifluoromethyl)phenyl]pentyl}-1H-pyrazole-4-carboxamide]"
22,≤ 2000,"O=C(NCC12CC3CC(CC(C3)C1)C2)c1cn(-c2nccs2)nc1C(F)(F)F [Compound 135, N-(adamantan-1-ylmethyl)-1-(1,3-thiazol-2-yl)-3-(trifluoromethyl)-1H-pyrazole-4-carboxamide]"
23,≤ 2000,"CC1CC(NC(=O)c2cn(-c3ncccn3)nc2C(F)(F)F)CC(C)(C)C1 (centres unmarked) [Compound 216, 1-pyrimidin-2-yl-3-(trifluoromethyl)-N-(3,3,5-trimethylcyclohexyl)-1H-pyrazole-4-carboxamide]"

row,Compound,IC50 [nM]
1,"O=C(NCC1(N2CCCCC2)CCCCC1)c1sc(-c2ncccn2)nc1C(F)(F)F [Compound 296, N-[(1-piperidin-1-ylcyclohexyl)methyl]-2-pyrimidin-2-yl-4-(trifluoromethyl)-1,3-thiazole-5-carboxamide]",≤ 2000

# Same assay, conditions: SH-SY5Y cells; 50% decrease in fluorescence response of cells exposed to 80 μM BzATP; flag after the MS data in Examples 1-2
row,IC50 [nM],Compound
1,≤ 2000,"O=C(NCC1(c2cccnc2)CCCCC1)c1cn(-c2nccn3ccnc23)nc1C(F)(F)F [Compound 14, 1-Imidazo[1,2-a]pyrazin-8-yl-3-trifluoromethyl-1H-pyrazole-4-carboxylic acid (1-pyridin-3-yl-cyclohexylmethyl)-amide]"
2,≤ 2000,"Cc1nc(-c2cccnc2)sc1C(=O)NCC1(c2ccc(Cl)cc2)CCCCC1 [Compound 29, N-{[1-(4-Chlorophenyl)cyclohexyl]methyl}-4-methyl-2-pyridin-3-yl-1,3-thiazole-5-carboxamide]"
